From ChEMBL document CHEMBL5046290, “Design, Synthesis, and Preclinical Profiling of GSK3739936 (BMS-986180), an Allosteric Inhibitor of HIV-1 Integrase with Broad-Spectrum Activity toward 124/125 Polymorphs” (J Med Chem, 2022)

Tests used:
[1] = Cytotoxicity against human MT2 cells assessed as cell viability measured after 4 days by XTT assay; type: toxicity, cell-based; settings: time 4 day
[2] = Cmax in CD-1 mouse at 5 mg/kg, po by LC-MS/MS analysis; type: ADME, organism-based; design: route oral, dose 5 mg/kg; settings: in vivo
[3] = Toxicity in dog assessed as fecal change at upto 300 mg/kg, po administered as single dose; type: organism-based, Canis lupus familiaris; settings: in vivo
CYP [4] = test: Half life in dog assessed as CYP mediated metabolism in presence of […] by phase I metabolic oxidation assay; type: ADME, Canis lupus familiaris
Cytochrome P450 2D6 = Cytochrome P450 2D6 (Homo sapiens, UniProt P10635); test: Inhibition of human CYP2D6; type: ADME
Cytochrome P450 2D6, sequence (P10635 whole entry): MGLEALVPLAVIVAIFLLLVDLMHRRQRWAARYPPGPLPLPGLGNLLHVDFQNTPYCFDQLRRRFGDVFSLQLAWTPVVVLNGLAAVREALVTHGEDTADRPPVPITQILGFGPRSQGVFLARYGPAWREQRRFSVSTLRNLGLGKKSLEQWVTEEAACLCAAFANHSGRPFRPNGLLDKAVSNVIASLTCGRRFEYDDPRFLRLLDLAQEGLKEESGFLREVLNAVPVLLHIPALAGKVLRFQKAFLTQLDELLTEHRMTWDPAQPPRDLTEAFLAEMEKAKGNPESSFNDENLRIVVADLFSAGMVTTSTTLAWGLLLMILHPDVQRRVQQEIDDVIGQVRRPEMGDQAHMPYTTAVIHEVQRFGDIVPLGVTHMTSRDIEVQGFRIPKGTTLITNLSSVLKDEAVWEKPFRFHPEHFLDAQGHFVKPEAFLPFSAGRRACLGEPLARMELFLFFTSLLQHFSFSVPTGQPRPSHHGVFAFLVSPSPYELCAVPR

[5] = Permeability of the compound at pH 5.5 by PAMPA assay; type: ADME; settings: read-out: permeability
Cytochrome P450 2C8 = target: T1, Cytochrome P450 2C8 (Homo sapiens, UniProt P10632); test: Inhibition of human CYP2C8; type: ADME
T1 sequence (P10632 whole entry): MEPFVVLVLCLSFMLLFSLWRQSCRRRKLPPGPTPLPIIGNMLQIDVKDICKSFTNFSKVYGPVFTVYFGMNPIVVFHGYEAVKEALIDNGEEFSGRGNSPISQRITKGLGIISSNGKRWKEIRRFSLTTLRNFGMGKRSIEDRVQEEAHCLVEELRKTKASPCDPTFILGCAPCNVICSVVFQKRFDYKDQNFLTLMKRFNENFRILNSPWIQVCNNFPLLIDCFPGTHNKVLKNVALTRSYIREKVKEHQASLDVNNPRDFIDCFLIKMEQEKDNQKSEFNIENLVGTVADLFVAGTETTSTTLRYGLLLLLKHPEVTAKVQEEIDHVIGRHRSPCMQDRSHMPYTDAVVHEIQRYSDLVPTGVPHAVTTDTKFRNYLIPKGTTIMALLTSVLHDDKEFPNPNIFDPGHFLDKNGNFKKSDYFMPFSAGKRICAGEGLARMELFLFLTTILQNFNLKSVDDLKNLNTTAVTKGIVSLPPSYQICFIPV

[6] = Solubility of the compound using amorphous form of sample; type: physicochemical
[7] = Oral bioavailability in cynomolgus monkey at 2 mg/kg by LC-MS/MS analysis; type: ADME, organism-based, Macaca fascicularis; settings: in vivo
[8] = system: Human immunodeficiency virus 1; test: Antiviral activity against recombinant HIV1 NLRep-Rluc harbouring polymorphic T124/T125 integrase infected in human MT-2 cells assessed as inhibition of virus growth in presence of fetal bovine serum by measuring luciferase activity after 5 days; type: functional, organism-based, MT2; settings: Human immunodeficiency virus 1, NLRep, MT2, 120 h
[9] = Toxicity in rat assessed as vacuolation of kidney at 500 mg/kg/day; type: organism-based; settings: in vivo
[10] = Cardiotoxicity in dog heart assessed as decrease in blood pressure at 300 mg/kg; type: toxicity, organism-based, Canis lupus familiaris; design: scale not given: the % may be the effect or the level left; settings: in vivo
[11] = Toxicity in rat assessed as histological changes in thymus at 500 mg/kg/day; type: organism-based; settings: in vivo
[12] = Clearance in CD-1 mouse at 1 mg/kg, iv by LC-MS/MS analysis; type: ADME, organism-based; settings: in vivo
UGT [13] = test: Metabolic stability assessed as dog UGT-mediated metabolism by measuring half life by phase II UGT conjugation assay; type: ADME, Canis lupus familiaris
[14] = Clearance in Beagle dog at 1 mg/kg, iv by LC-MS/MS analysis; type: ADME, organism-based, Canis lupus familiaris; settings: in vivo
[15] = Toxicity in rat assessed as distended stomach at 500 mg/kg/day; type: organism-based; settings: in vivo
[16] = Toxicity in rat assessed as change in parathyroid gland at 500 mg/kg/day; type: organism-based; settings: in vivo
UGT [17] = test: Metabolic stability assessed as monkey UGT-mediated metabolism by measuring half life by phase II UGT conjugation assay; type: ADME, Macaca mulatta; settings: rhesus monkey
[18] = target: Voltage-gated inwardly rectifying potassium channel KCNH2 (Homo sapiens, UniProt Q12809); test: Inhibition of hERG; type: toxicity
Voltage-gated inwardly rectifying potassium channel KCNH2, sequence (Q12809 whole entry): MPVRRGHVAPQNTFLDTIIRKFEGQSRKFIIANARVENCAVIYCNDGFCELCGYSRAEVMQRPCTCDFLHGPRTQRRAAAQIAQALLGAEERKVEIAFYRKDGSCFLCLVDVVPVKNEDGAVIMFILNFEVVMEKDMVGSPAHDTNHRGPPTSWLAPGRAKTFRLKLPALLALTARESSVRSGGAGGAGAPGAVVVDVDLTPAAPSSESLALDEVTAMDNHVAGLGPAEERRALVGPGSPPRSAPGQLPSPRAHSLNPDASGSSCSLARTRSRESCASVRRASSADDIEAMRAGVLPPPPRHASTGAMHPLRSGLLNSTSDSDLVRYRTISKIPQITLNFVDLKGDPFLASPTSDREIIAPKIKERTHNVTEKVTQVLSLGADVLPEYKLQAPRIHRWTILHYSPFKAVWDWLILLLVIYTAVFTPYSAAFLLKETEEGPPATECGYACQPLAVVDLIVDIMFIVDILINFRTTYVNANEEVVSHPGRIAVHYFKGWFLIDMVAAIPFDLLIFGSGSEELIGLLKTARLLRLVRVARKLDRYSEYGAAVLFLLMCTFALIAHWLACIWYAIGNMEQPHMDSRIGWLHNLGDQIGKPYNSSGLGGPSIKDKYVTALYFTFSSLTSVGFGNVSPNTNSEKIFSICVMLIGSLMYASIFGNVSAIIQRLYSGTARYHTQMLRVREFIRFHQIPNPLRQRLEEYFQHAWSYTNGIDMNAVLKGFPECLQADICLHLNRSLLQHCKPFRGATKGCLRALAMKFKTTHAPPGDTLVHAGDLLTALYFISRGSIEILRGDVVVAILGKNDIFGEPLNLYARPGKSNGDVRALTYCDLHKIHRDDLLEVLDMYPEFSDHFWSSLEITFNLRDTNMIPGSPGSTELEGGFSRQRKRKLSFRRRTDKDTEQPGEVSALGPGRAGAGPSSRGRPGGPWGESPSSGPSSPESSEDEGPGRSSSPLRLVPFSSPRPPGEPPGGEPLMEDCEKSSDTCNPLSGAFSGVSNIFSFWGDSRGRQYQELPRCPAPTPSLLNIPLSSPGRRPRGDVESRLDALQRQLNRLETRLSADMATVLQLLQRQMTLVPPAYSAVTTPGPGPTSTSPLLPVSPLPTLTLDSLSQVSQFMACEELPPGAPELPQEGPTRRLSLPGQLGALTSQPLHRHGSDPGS

Salmonella typhimurium [19] = test: Genotoxicity in Salmonella typhimurium TA102 by Ames test; type: toxicity, organism-based; settings: salmonella enterica subsp. enterica serovar typhimurium
Cytochrome P450 3A4 = Cytochrome P450 3A4 (Homo sapiens, UniProt P08684); test: Inhibition of human CYP3A4; type: ADME
Cytochrome P450 3A4, sequence (P08684 whole entry): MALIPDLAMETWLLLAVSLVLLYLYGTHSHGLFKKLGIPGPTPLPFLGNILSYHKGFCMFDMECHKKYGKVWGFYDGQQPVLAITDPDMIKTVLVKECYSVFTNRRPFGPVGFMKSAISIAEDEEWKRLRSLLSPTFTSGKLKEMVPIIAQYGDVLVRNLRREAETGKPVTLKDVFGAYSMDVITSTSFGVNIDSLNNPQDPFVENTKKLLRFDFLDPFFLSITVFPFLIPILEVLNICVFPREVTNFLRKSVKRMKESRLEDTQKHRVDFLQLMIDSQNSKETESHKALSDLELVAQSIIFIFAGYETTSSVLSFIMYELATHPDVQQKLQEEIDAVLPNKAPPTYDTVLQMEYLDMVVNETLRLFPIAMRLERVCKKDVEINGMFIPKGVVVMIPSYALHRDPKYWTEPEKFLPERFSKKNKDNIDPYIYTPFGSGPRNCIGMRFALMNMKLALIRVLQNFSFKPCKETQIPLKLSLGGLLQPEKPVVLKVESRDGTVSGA

[20] = Toxicity in dog assessed as vomiting at >=100 mg/kg, po administered as single dose; type: organism-based, Canis lupus familiaris; settings: in vivo
Salmonella typhimurium [21] = test: Mutagenicity in Salmonella Typhimurium using Aroclor 1254 induced rat liver S9 fraction by […] assay; type: toxicity, organism-based; settings: salmonella enterica subsp. enterica serovar typhimurium
[22] = Toxicity in rat assessed as maximum tolerated dose; settings: in vivo
UGT [23] = target: UGT (Homo sapiens, UniProt O60656+O75310+O75795+P06133+P0DTE4+P0DTE5+P16662+P19224+P22309+P22310+P35503+P35504+P36537+P54855+Q6UWM9+Q9BY64+Q9HAW7+Q9HAW8+Q9HAW9); test: Metabolic stability assessed as human UGT-mediated metabolism by measuring half life by phase II UGT conjugation assay; type: ADME, protein assay
[24] = AUC in Sprague-Dawley rat at 5 mg/kg, po by LC-MS/MS analysis; type: ADME, organism-based; design: dose 5 mg/kg; settings: in vivo
[25] = Permeability of the compound at pH 7.4 by PAMPA assay; type: ADME; settings: read-out: permeability
[26] = Toxicity in rat assessed as histological changes in adrenal gland at 500 mg/kg/day; type: organism-based; settings: in vivo
[27] = Stability in pH 1 for 2 days at 50 degC; type: physicochemical; settings: buffer, pH 1, 48 h; time 2 day
[28] = Toxicity in rat assessed as histological changes in lymph node at 500 mg/kg/day; type: organism-based; settings: in vivo
[29] = Cmax in Sprague-Dawley rat at 5 mg/kg, po by LC-MS/MS analysis; type: ADME, organism-based; design: route oral, dose 5 mg/kg; settings: in vivo
[30] = Tmax in CD-1 mouse at 5 mg/kg, po by LC-MS/MS analysis; type: ADME, organism-based; settings: in vivo
[31] = Toxicity in rat assessed as histological changes in stomach at 500 mg/kg/day; type: organism-based; settings: in vivo
UGT [32] = test: Metabolic stability assessed as rat UGT-mediated metabolism by measuring half life by phase II UGT conjugation assay; type: ADME
[33] = Cmax in Beagle dog at 2 mg/kg, po by LC-MS/MS analysis; type: ADME, organism-based, Canis lupus familiaris; design: route oral, dose 2 mg/kg; settings: in vivo
[34] = system: Human immunodeficiency virus 1; test: Antiviral activity against recombinant HIV1 NLRep-Rluc harbouring polymorphic TA infected in human MT-2 cells assessed as inhibition of virus growth in presence of fetal bovine serum by measuring luciferase activity after 5 days; type: functional, organism-based; settings: Human immunodeficiency virus 1, NLRep, MT2, 120 h
[35] = system: Human immunodeficiency virus 1; test: Antiviral activity against recombinant HIV1 A128T-resitant mutant […] infected in human MT-2 cells assessed as inhibition of virus growth in presence of fetal bovine serum by measuring luciferase activity after 5 days; type: functional, organism-based; settings: Human immunodeficiency virus 1, MT2, 120 h
CYP [36] = test: Half life in monkey assessed as CYP mediated metabolism in presence of […] by phase I metabolic oxidation assay; type: ADME, Macaca mulatta; settings: rhesus monkey
[37] = AUC in CD-1 mouse at 5 mg/kg, po by LC-MS/MS analysis; type: ADME, organism-based; design: dose 5 mg/kg; settings: in vivo
[38] = Volume of distribution at steady state in Cynomolgus monkey at 1 mg/kg, iv by LC-MS/MS analysis; type: ADME, organism-based, Macaca fascicularis; settings: in vivo, read-out: Vdss
CYP [39] = test: Half life in rat assessed as CYP mediated metabolism in presence of […] by phase I metabolic oxidation assay; type: ADME
[40] = Clearance in Cynomolgus monkey at 1 mg/kg, iv by LC-MS/MS analysis; type: ADME, organism-based, Macaca fascicularis; settings: in vivo

In the case of `Cc1nc(C)c([C@H](OC(C)(C)C)C(=O)O)c(N2CCC(C)(C)CC2)c1-c1ccc(OCCc2ccc(F)cc2)cc1`, the CC50 at 96 h [1] is reported as ≥ 33.5 µM, the Cmax [2] is reported as 2.36 µM and the Activity [3] is reported as “Toxic”. For the same compound, the half-life (CYP [4]) was > 2 h, the IC50 (Cytochrome P450 2D6) was ≥ 24.3 µM and the Papp [5] was 896 nm/s. For the same compound, the IC50 (Cytochrome P450 2C8) was ≥ 24.3 µM, the solubility [6] was < 1 µg/mL and the bioavailability [7] was 54%. For the same compound, the EC50 [8] was 0.0017 µM, the Activity [9] was “Toxic” and the Activity [10] was 6%. For the same compound, the Activity [11] was “Toxic”, the clearance [12] was 0.324 L/h/kg and the half-life (UGT [13]) was ≥ 2 h. For the same compound, the clearance [14] was 0.174 L/h/kg, the Activity [15] was “Toxic” and the Activity [16] was “Toxic”. The half-life (UGT [17]) was ≥ 2 h, the IC50 [18] was 0.67 µM and the Activity (Salmonella typhimurium [19]) was “Non-Toxic”. For the same compound, the IC50 (Cytochrome P450 3A4) was ≥ 24.3 µM, the Activity [20] was “Toxic” and the Activity (Salmonella typhimurium [21]) was “Non-Toxic”. The MTD [22] was 50 mg/kg/day, the half-life (UGT [23]) was ≥ 2 h and the AUC [24] was 14 µM·h. For the same compound, the Papp [25] was 505 nm/s, the Activity [26] was “Toxic” and the Stability [27] was “Unstable”. The Activity [28] was “Toxic”, the Cmax [29] was 2.76 µM and the Tmax [30] was 5 h. The Activity [31] was “Toxic”, the half-life (UGT [32]) was ≥ 2 h and the Cmax [33] was 2.96 µM. For the same compound, the EC50 [34] was 0.0028 µM, the EC50 [35] was 0.363 µM and the half-life (CYP [36]) was 0.983 h. For the same compound, the AUC [37] was 24.5 µM·h, the Vd [38] was 1.5 L/kg and the half-life (CYP [39]) was > 2 h. It also gave a clearance [40] of 0.87 L/h/kg.
